Values joined by “and” are separate entries in the source; they are usually repeats but may differ in a detail not shown here. Equal values may be shown once. Inconclusive results and toxic doses are left out. No stated cut-off is given here; in the data, active means T/C of 150% or more; inactive means T/C below 125%.
Test system: L1210 leukemia ip in BDF1 mice, survival T/C
Assay: NCI In Vivo Anticancer Drug Screen. Data for tumor model L1210 Leukemia (intraperitoneal) in B6D2F1 (BDF1) mice
Conditions: endpoint: mean survival time, higher = longer survival
Outline: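 Tumor was transplanted into mice, which were then dosed with test compound or vehicle alone. Survival was recorded for each group, and the treated figure was expressed relative to the control figure.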

[1] = dose: 50.0 mg/kg/injection, schedule: Q01DX009 (ip), vehicle: saline
[2] = dose: 100.0 mg/kg/injection, schedule: Q01DX009 (ip), vehicle: saline
[3] = dose: 100.0 mg/kg/injection, schedule: Q01DX009 (ip), vehicle: Klucel (hydroxypropylcellulose) (HPC)
[4] = dose: 100.0 mg/kg/injection, schedule: Q04DX003 (ip), vehicle: Klucel (hydroxypropylcellulose) (HPC)
[5] = dose: 200.0 mg/kg/injection, schedule: Q01DX009 (ip), vehicle: Klucel (hydroxypropylcellulose) (HPC)
[6] = dose: 200.0 mg/kg/injection, schedule: Q04DX003 (ip), vehicle: Klucel (hydroxypropylcellulose) (HPC)
[7] = dose: 400.0 mg/kg/injection, schedule: Q01DX009 (ip), vehicle: Klucel (hydroxypropylcellulose) (HPC)
[8] = dose: 400.0 mg/kg/injection, schedule: Q04DX003 (ip), vehicle: Klucel (hydroxypropylcellulose) (HPC)
[9] = dose: 100.0 mg/kg/injection, schedule: Q01DX009 (ip), vehicle: saline with Tween-80
[10] = dose: 100.0 mg/kg/injection, schedule: Q04DX003 (ip), vehicle: saline with Tween-80
[11] = dose: 200.0 mg/kg/injection, schedule: Q01DX009 (ip), vehicle: saline with Tween-80
[12] = dose: 200.0 mg/kg/injection, schedule: Q04DX003 (ip), vehicle: saline with Tween-80
[13] = dose: 400.0 mg/kg/injection, schedule: Q01DX009 (ip), vehicle: saline with Tween-80
[14] = dose: 400.0 mg/kg/injection, schedule: Q04DX003 (ip), vehicle: saline with Tween-80
[15] = dose: 100.0 mg/kg/injection, schedule: Q04DX002 (ip), vehicle: Klucel (hydroxypropylcellulose) (HPC)
[16] = dose: 200.0 mg/kg/injection, schedule: Q04DX002 (ip), vehicle: Klucel (hydroxypropylcellulose) (HPC)
[17] = dose: 400.0 mg/kg/injection, schedule: Q04DX002 (ip), vehicle: Klucel (hydroxypropylcellulose) (HPC)
[18] = dose: 100.0 mg/kg/injection, schedule: Q04DX002 (ip), vehicle: saline with Tween-80
[19] = dose: 200.0 mg/kg/injection, schedule: Q04DX002 (ip), vehicle: saline with Tween-80
[20] = dose: 100.0 mg/kg/injection, schedule: Q04DX002 (ip), vehicle: saline

Measured: T/C

Cc1ncc(CCl)n1Cc1ccccc1
inactive: dose: 6.25 mg/kg/injection, schedule: Q04DX002 (ip), vehicle: saline 95 % of control and 87 % of control | dose: 12.5 mg/kg/injection, schedule: Q04DX002 (ip), vehicle: Klucel (hydroxypropylcellulose) (HPC) 110 % of control | dose: 12.5 mg/kg/injection, schedule: Q04DX002 (ip), vehicle: saline 114 % of control and 90 % of control | dose: 25.0 mg/kg/injection, schedule: Q01DX009 (ip), vehicle: saline 94 % of control and 104 % of control | dose: 25.0 mg/kg/injection, schedule: Q04DX002 (ip), vehicle: Klucel (hydroxypropylcellulose) (HPC) 95 % of control | dose: 50.0 mg/kg/injection, schedule: Q01DX001 (ip), vehicle: saline 96 % of control | [1] 93 % of control and 119 % of control | dose: 50.0 mg/kg/injection, schedule: Q04DX002 (ip), vehicle: Klucel (hydroxypropylcellulose) (HPC) 100 % of control | dose: 100.0 mg/kg/injection, schedule: Q01DX001 (ip), vehicle: saline 97 % of control | [2] 89 % of control and 90 % of control | dose: 100.0 mg/kg/injection, schedule: Q04DX003 (ip), vehicle: saline 90 % of control | dose: 200.0 mg/kg/injection, schedule: Q04DX003 (ip), vehicle: saline 93 % of control

CNS(=O)(=O)c1ccc(C(N)=S)cc1
inactive: dose: 100.0 mg/kg/injection, schedule: Q01DX001 (ip), vehicle: gum acacia 93 % of control | dose: 200.0 mg/kg/injection, schedule: Q01DX001 (ip), vehicle: gum acacia 106 % of control | dose: 400.0 mg/kg/injection, schedule: Q01DX001 (ip), vehicle: gum acacia 98 % of control

CSc1ccccc1N.[Cl][Cu][Cl]
inactive: dose: 5.0 mg/kg/injection, schedule: Q01DX001 (ip), vehicle: saline 103 % of control | dose: 10.0 mg/kg/injection, schedule: Q01DX001 (ip), vehicle: saline 115 % of control

O=C(O)CC(c1ccccc1)n1ccc(=O)[nH]c1=O (stereo not given)
inactive: dose: 25.0 mg/kg/injection, schedule: Q01DX001 (ip), vehicle: Klucel (hydroxypropylcellulose) (HPC) 103 % of control | dose: 50.0 mg/kg/injection, schedule: Q01DX001 (ip), vehicle: Klucel (hydroxypropylcellulose) (HPC) 106 % of control | dose: 100.0 mg/kg/injection, schedule: Q01DX001 (ip), vehicle: Klucel (hydroxypropylcellulose) (HPC) 101 % of control

CCOP1(=O)NC(=O)C=C(C)N1 (stereo not given)
inactive: dose: 60.0 mg/kg/injection, schedule: Q04DX002 (ip), vehicle: sodium bicarbonate 102 % of control | dose: 120.0 mg/kg/injection, schedule: Q04DX002 (ip), vehicle: sodium bicarbonate 97 % of control

BrC1C2CC3C1C3C2c1ccccc1 (stereo not given)
inactive: [3] 117 % of control | [4] 103 % of control | [5] 109 % of control | [6] 107 % of control | [7] 107 % of control | [8] 103 % of control

OC(c1ccccc1)(c1ccccc1)c1ccc(F)cc1
inactive: [9] 102 % of control | [10] 92 % of control | [11] 101 % of control | [12] 100 % of control | [13] 89 % of control | [14] 87 % of control

NC(N)=N/N=C/c1ccc([N+](=O)[O-])cc1
inactive: dose: 15.0 mg/kg/injection, schedule: Q01DX Z (ip), vehicle: saline 95 % of control | dose: 30.0 mg/kg/injection, schedule: Q01DX Z (ip), vehicle: saline 95 % of control | dose: 30.0 mg/kg/injection, schedule: Q01DX Z (oral), vehicle: other 104 % of control | dose: 60.0 mg/kg/injection, schedule: Q01DX Z (ip), vehicle: saline 90 % of control | dose: 60.0 mg/kg/injection, schedule: Q01DX Z (oral), vehicle: other 100 % of control | dose: 120.0 mg/kg/injection, schedule: Q01DX Z (oral), vehicle: other 88 % of control

Cc1cn(C2CCCCO2)c(=O)nc1NO (stereo not given)
inactive: dose: 100.0 mg/kg/injection, schedule: Q01DX001 (ip), vehicle: carboxymethylcellulose (CMC) 95 % of control | dose: 200.0 mg/kg/injection, schedule: Q01DX001 (ip), vehicle: carboxymethylcellulose (CMC) 90 % of control | dose: 400.0 mg/kg/injection, schedule: Q01DX001 (ip), vehicle: carboxymethylcellulose (CMC) 108 % of control

CCCCCCCCCCCCCCCC(=O)Nc1cccc2cnccc12
inactive: [4] 100 % of control | [6] 97 % of control | [8] 105 % of control

CCc1cc2oc(C)c(C)c2c(N=Nc2ccccc2OC)c1O
inactive: [15] 105 % of control | [16] 102 % of control | [17] 102 % of control

Cc1nc2c(=O)n(C)c(=O)n(C)c2n1C
inactive: dose: 50.0 mg/kg/injection, schedule: Q01DX009 (ip), vehicle: saline with Tween-80 101 % of control | [9] 98 % of control | [10] 100 % of control | [11] 100 % of control | [12] 98 % of control

CC/C=C(/C#N)CC
inactive: [18] 104 % of control | [19] 93 % of control

C/C=C1/C(=O)Oc2ccccc21
inactive: [1] 97 % of control | [2] 102 % of control | dose: 200.0 mg/kg/injection, schedule: Q01DX009 (ip), vehicle: saline 94 % of control

CCCCN1C(=O)CC(C23C(=O)N(CCCC)C(=O)C2CCc2ncccc23)C1=O (stereo not given)
inactive: [3] 87 % of control | [4] 94 % of control | [5] 89 % of control | [6] 99 % of control | [7] 87 % of control | [8] 90 % of control

CC(C)CCCC(=O)CCCCCCC(=O)CCN(O)C(=O)C(N)CO (stereo not given)
inactive: dose: 12.5 mg/kg/injection, schedule: Q01DX009 (ip), vehicle: acetone 93 % of control | dose: 25.0 mg/kg/injection, schedule: Q01DX009 (ip), vehicle: acetone 102 % of control | dose: 25.0 mg/kg/injection, schedule: Q04DX003 (ip), vehicle: acetone 95 % of control | dose: 50.0 mg/kg/injection, schedule: Q04DX003 (ip), vehicle: acetone 103 % of control | dose: 100.0 mg/kg/injection, schedule: Q01DX001 (ip), vehicle: acetone 97 % of control

CNC1CC2CCC1(C)C2(C)C (stereo not given)
inactive: [20] 96 % of control

C=C(C(N)=O)c1cc(Cl)ccc1Cl
inactive: [9] 96 % of control | [10] 103 % of control | [11] 92 % of control | [12] 101 % of control | [13] 92 % of control | [14] 94 % of control

CSc1ccc(OC(=O)Nc2cc([N+](=O)[O-])ccc2F)cc1C
inactive: [18] 89 % of control | [20] 92 % of control | [19] 93 % of control | dose: 200.0 mg/kg/injection, schedule: Q04DX002 (ip), vehicle: saline 110 % of control | dose: 400.0 mg/kg/injection, schedule: Q04DX002 (ip), vehicle: saline with Tween-80 91 % of control | dose: 800.0 mg/kg/injection, schedule: Q04DX002 (ip), vehicle: saline with Tween-80 93 % of control

CCn1ccc(=O)c2cc([N+](=O)[O-])ccc21
inactive: [3] 95 % of control | [4] 92 % of control | [5] 103 % of control | [6] 92 % of control | [7] 92 % of control | [8] 91 % of control

COC(=O)C1C(=O)C(C(=O)OC)C(C)N(C)C1C (stereo not given)
inactive: dose: 9.38 mg/kg/injection, schedule: Q01DX001 (ip), vehicle: other 98 % of control | dose: 18.75 mg/kg/injection, schedule: Q01DX001 (ip), vehicle: other 104 % of control | dose: 37.5 mg/kg/injection, schedule: Q01DX001 (ip), vehicle: other 95 % of control

Cc1ccc(C)c(NC(=O)Oc2ccc(Cl)c(C)c2)c1
inactive: [15] 102 % of control | [16] 105 % of control | [17] 108 % of control
